Measurements taken from patent EP4279069A1, “A PHARMACEUTICAL COMPOSITION FOR USE IN PREVENTING AND/OR REDUCING HEPATOTOXICITY INDUCED BY ACETAMINOPHEN” (priority 2022, dated 2023).
Values joined by “and” are separate entries in the source; they are usually repeats but may differ in a detail not shown here. Equal values may be shown once.

Legend:
rats = assay: Toxicology of acetaminophen and/or nefopam: ALAT and ASAT by UV test according to IFCC recommendations; conditions: for ALAT / ASAT: after 4 weeks, mean, groups 2, 3, 5: P 505 for 4 days then 645 for 24 days and/or N 30 for 4 days then 38.6 for 24 days (mg/kg/day); for transaminase levels: rats, substance alone, after 4 weeks of treatment, statement in text
Protocol: Liver function in rats is measured and the progression of liver damage is monitored to screen for liver disease in invasive and non-invasive manner. Alanine aminotransferase (ALAT) and aspartate aminotransferase (ASAT), two markers of hepatotoxicity was assayed using UV test according to IFCC recommendations.
Control animals (group 1) received the vehicle only (1% Tween 80 in 0.5% Methylcellulose in water).

[1] = cited from earlier work
[2] = median value; cited from earlier work
[3] = tested on: acetaminophen-induced acute liver injury; assay: Assessment of acute hepatotoxicity: serum biomarkers of liver injury (ALAT, ASAT), spectrophotometric assay; conditions: for ALAT / ASAT: i.p., 24h after treatment, individual mice
Protocol: 192 male mice CD-1 (Janvier, France) (12 mice per group) with an age of 7-10 weeks were used. They received the products intraperitoneally (i.p.).
Determination of serum biomarkers: Liver injury was evaluated by measuring the serum levels of alanine aminotransferase (ALAT), and aspartate aminotransferase (ASAT) using a spectrophotometric assay method.
(§1) Protocol: 24h after treatments, animals were euthanized. Plasma and liver were sampled.
Statistical analysis: Results were expressed as means ± standard error of mean (S.E.M.).

[4] = tested on: acetaminophen-induced acute liver injury; assay: Assessment of acute hepatotoxicity: histopathological assessment of liver lesions (H&E, necrosis grade); format: in vivo, mice CD-1
Protocol: They received the products intraperitoneally (i.p.).
Histopathological assessment of liver lesions: The histopathological lesions in the liver were evaluated as follows: The collected tissues were processed with standard procedures and embedded in paraffin. The embedded tissues were sectioned into 4 µm thick sections using a microtome. These tissue sections were stained with hematoxylin and eosin (H&E) according to standard techniques and examined by a light microscope.
The severity of necrotic lesions in liver parenchyma was determined. Grade 0: No pathological change Grade 1: Presence of degenerated hepatocytes with only rare foci of necrosis Grade 2: Small area of mild centrilobular necrosis around the central vein Grade 3: Area of mild centrilobular necrosis severer than Grade 2 Grade 4: Centrilobular necrosis severer than Grade 3
as §1

[5] = Vehicle + 200 mg/kg NAC, 200 mg/kg
[6] = Vehicle + 1.1 mg/kg nefopam, 1.1 mg/kg
[7] = Vehicle + 2.2 mg/kg nefopam, 2.2 mg/kg
[8] = Vehicle + 4.4 mg/kg nefopam, 4.4 mg/kg
[9] = nefopam at doses of 17.65 and 35.29 mg/kg (i.p.) co-administered with acetaminophen, mice

Which results are given for `CC(=O)Nc1ccc(O)cc1` [Acetaminophen, N-acetyl-p-aminophenol]?
ALAT (rats; female rats): 49 U/L; ASAT (rats; female rats): 101 U/L; ALAT (rats; male rats): 59 U/L; ASAT (rats; male rats): 110 U/L; transaminase levels (rats): increases transaminase levels; transaminase levels (rats; listed as acetaminophen): increase in transaminase levels; half-life ([1]; individuals without liver injury): 2 to 3 h; bioavailability (drug being absorbed) ([1]; taken orally): ~80%; metabolized through the activity of CYPs (primarily CYP2E) to N-acetyl-p-benzoquinoneimine (NAPQI) ([1]; therapeutic doses): ≤ 5%; median effective analgesic dose [2]: 500 mg

With `CC(=O)N[C@@H](CS)C(=O)O` [NAC, N-acetylcysteine] as the compound, how does the ALAT [3, 5] read?
The ALAT was 41 U/L (2×) and 26 U/L and 27 U/L and 30 U/L and 58 U/L and 31 U/L and 28 U/L and 14 U/L and 29 U/L and 71 U/L and 51 U/L.

And the ASAT [3, 5]?
The ASAT was 292 U/L and 101 U/L and 114 U/L and 184 U/L and 320 U/L and 160 U/L and 360 U/L and 107 U/L and 283 U/L and 723 U/L and 170 U/L and 183 U/L.

What about the Score ([4]; Vehicle + 200 mg/kg NAC, i.p., 24h after treatment, individual mice) of the same compound?
The Score was 0.

Which ALAT (rats; female rats) does the source give for `CN1CCOC(c2ccccc2)c2ccccc2C1` (stereo not shown) [nefopam, 5-methyl-1-phenyl-1,3,4,6-tetrahydro-2,5-benzoxazo-cine] here?
The ALAT was 31 U/L.

And the ASAT (rats; female rats)?
Its ASAT is 96 U/L.

And the ALAT (rats; male rats)?
The ALAT was 35 U/L.

What about the ASAT (rats; male rats) of the same compound?
The ASAT was 83 U/L.

What about the ALAT [3, 6] of the same compound?
Its ALAT is 17 U/L and 29 U/L and 55 U/L (2×) and 51 U/L and 23 U/L and 31 U/L and 45 U/L and 19 U/L and 49 U/L and 27 U/L and 28 U/L.

And the ASAT [3, 6]?
The ASAT was 98 U/L and 266 U/L and 180 U/L and 152 U/L and 193 U/L and 181 U/L and 136 U/L and 426 U/L and 110 U/L and 97 U/L and 210 U/L.

What about the ALAT [3, 7] of the same compound?
Its ALAT is 30 U/L (2×) and 19 U/L (2×) and 52 U/L and 152 U/L and 24 U/L and 27 U/L and 35 U/L and 60 U/L and 57 U/L and 25 U/L.

What about the ASAT [3, 7] of the same compound?
The ASAT was 111 U/L and 395 U/L and 59 U/L and 325 U/L and 119 U/L and 118 U/L and 221 U/L and 129 U/L and 269 U/L and 785 U/L and 148 U/L.

And the ALAT [3, 8]?
The ALAT was 55 U/L and 25 U/L and 22 U/L and 43 U/L (2×) and 51 U/L and 26 U/L and 28 U/L and 42 U/L and 24 U/L and 71 U/L and 23 U/L.

And the ASAT [3, 8]?
Its ASAT is 541 U/L and 128 U/L and 111 U/L and 93 U/L and 151 U/L and 79 U/L and 89 U/L and 531 U/L and 71 U/L and 466 U/L.

And the acetaminophen-induced hepatotoxicity ([3]; co-administered with acetaminophen 300 mg/kg i.p., mice)?
The acetaminophen-induced hepatotoxicity was “able to abolish acetaminophen-induced hepatotoxicity”.

What about the “ASAT and ALAT plasma concentration” value ([3]; mouse, in vivo) of the same compound?
Its value is “did not influence”.

What about the “ASAT and ALAT elevations” value [3, 9] of the same compound?
Its value is “significantly reduced”.

And the histological score ([4]; mouse, in vivo)?
Its histological score is 0.

And the histological score [4, 9]?
Its histological score is “significantly reduced”.
